The record followed here is patent publication US20240208992A1, “MACROCYCLES AS CFTR MODULATORS” (Idorsia Pharmaceuticals Ltd, priority 2021, published 2024).

This test deals with human F508del-CFTR (Homo sapiens, UniProt P13569, DEL508-508). As to the kind of experiment: F508del-CFTR cell surface expression (corrector activity), DiscoveRx ß-galactosidase complementation chemiluminescence assay in recombinant U2OS cell line.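 On all read-outs here: U2OS cells co-expressing ProLink-tagged F508del-CFTR and a membrane-anchored enzyme acceptor, where more surface CFTR restores β-galactosidase activity measured by chemiluminescence.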 The settings on record: for EC50: EC50, F508del-CFTR cell surface expression, U2OS cells, 16h compound incubation, geomean values; for Emax: U2OS, in relation to Emax of corrector lumacaftor (=100%), arithmetic mean values.

SMILES strings stand for the structures.

human F508del-CFTR, sequence (P13569 with tags, fused parts or gaps DEL508-508): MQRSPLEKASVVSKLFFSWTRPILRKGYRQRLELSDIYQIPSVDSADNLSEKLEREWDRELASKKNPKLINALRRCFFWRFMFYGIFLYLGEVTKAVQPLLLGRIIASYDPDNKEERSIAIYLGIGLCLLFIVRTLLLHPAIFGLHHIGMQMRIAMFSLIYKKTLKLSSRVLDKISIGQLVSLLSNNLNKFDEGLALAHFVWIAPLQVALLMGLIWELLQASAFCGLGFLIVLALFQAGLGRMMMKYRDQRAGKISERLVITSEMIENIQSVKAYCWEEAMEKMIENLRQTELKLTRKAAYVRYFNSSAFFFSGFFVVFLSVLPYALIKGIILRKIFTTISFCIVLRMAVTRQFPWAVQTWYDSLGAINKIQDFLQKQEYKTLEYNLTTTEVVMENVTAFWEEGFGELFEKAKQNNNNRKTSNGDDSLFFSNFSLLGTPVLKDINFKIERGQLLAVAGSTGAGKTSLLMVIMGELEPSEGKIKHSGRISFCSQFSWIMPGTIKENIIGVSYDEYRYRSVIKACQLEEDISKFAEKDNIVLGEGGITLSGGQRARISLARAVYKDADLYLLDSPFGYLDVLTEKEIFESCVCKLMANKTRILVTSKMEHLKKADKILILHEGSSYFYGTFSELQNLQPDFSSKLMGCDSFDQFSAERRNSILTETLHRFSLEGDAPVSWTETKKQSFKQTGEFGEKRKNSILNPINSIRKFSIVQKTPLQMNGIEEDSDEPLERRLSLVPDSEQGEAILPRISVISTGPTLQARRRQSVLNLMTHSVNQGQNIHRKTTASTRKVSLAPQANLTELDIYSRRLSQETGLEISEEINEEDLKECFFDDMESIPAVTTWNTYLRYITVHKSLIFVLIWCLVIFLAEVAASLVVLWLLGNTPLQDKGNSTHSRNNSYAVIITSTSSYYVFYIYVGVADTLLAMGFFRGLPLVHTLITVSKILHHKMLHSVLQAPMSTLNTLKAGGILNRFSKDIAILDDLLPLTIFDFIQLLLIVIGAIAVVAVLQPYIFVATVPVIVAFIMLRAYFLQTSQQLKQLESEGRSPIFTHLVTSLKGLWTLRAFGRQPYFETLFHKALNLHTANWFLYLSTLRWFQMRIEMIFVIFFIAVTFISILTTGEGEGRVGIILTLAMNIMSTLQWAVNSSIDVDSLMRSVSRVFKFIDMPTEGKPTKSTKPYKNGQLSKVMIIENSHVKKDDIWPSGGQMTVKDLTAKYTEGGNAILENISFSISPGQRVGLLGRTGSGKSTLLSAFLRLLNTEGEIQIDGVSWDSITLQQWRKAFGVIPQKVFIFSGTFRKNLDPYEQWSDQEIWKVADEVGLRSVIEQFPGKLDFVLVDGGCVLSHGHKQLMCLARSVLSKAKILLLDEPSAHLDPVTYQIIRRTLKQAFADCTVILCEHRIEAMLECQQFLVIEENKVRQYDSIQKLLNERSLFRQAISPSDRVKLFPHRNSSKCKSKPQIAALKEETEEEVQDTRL

With `COc1cccc(CCNC(=O)[C@@H]2CC(=O)N(C)[C@@H](CC(C)C)C(=O)N3CCN(CC4CC4)C[C@@H]3C(=O)N[C@H](Cc3ccccc3)COc3ccc4nc(C)oc4c3C(=O)N2)c1` [Example 425, (8S,12S,18aR,21R)-21-benzyl-17-(cyclopropylmethyl)-12-isobutyl-N-(3-methoxyphenethyl)-4,11-dimethyl-6,10,13,19-tetraoxo-6,7,8,9,10,11,12,13,16,17,18,18a,19,20,21,22-hexadecahydro-15H-oxazolo[4′,5′:5,6]benzo[1,2-p]pyrazino[2,1-f][1]oxa[4,7,10,14]tetraazacycloheptadecine-8-carboxamide], the half-maximal effective concentration (EC50) stood at 348 nM and the maximal effect (Emax) came out at 364%.

Turning to `Cc1nc2ccc3c(c2o1)C(=O)N[C@H](C(=O)NCCc1cccc(OC(F)F)c1)CC(=O)N(C)[C@@H](CC(C)C)C(=O)N1CCN(CC2CC2)C[C@@H]1C(=O)N[C@H](Cc1ccccc1)CO3` [Example 426, (8S,12S,18aR,21R)-21-benzyl-17-(cyclopropylmethyl)-N-(3-(difluoromethoxy)phenethyl)-12-isobutyl-4,11-dimethyl-6,10,13,19-tetraoxo-6,7,8,9,10,11,12,13,16,17,18,18a,19,20,21,22-hexadecahydro-15H-oxazolo[4′,5′:5,6]benzo[1,2-p]pyrazino[2,1-f][1]oxa[4,7,10,14]tetraazacycloheptadecine-8-carboxamide], the EC50 was determined as 269 nM and the Emax was determined as 217%.

With `CCOc1cccc(CCNC(=O)[C@@H]2CC(=O)N(C)[C@@H](CC(C)C)C(=O)N3CCN(CC4CC4)C[C@@H]3C(=O)N[C@H](Cc3ccccc3)COc3ccc4nc(C)oc4c3C(=O)N2)c1` [Example 427, (8S,12S,18aR,21R)-21-benzyl-17-(cyclopropylmethyl)-N-(3-ethoxyphenethyl)-12-isobutyl-4,11-dimethyl-6,10,13,19-tetraoxo-6,7,8,9,10,11,12,13,16,17,18,18a,19,20,21,22-hexadecahydro-15H-oxazolo[4′,5′:5,6]benzo[1,2-p]pyrazino[2,1-f][1]oxa[4,7,10,14]tetraazacycloheptadecine-8-carboxamide], the half-maximal effective concentration (EC50) was found to be 248 nM and the Emax is 274%.

Turning to `Cc1nc2ccc3c(c2o1)C(=O)N[C@H](C(=O)NCCc1ccc(-n2nccn2)cc1)CC(=O)N(C)[C@@H](CC(C)C)C(=O)N1CCN(CC2CC2)C[C@@H]1C(=O)N[C@H](Cc1ccccc1)CO3` [Example 428, (8S,12S,18aR,21R)-N-(4-(2H-1,2,3-triazol-2-yl)phenethyl)-21-benzyl-17-(cyclopropylmethyl)-12-isobutyl-4,11-dimethyl-6,10,13,19-tetraoxo-6,7,8,9,10,11,12,13,16,17,18,18a,19,20,21,22-hexadecahydro-15H-oxazolo[4′,5′:5,6]benzo[1,2-p]pyrazino[2,1-f][1]oxa[4,7,10,14]tetraazacycloheptadecine-8-carboxamide], the concentration for a half-maximal effect (EC50) was 614 nM and the Emax is 218%.

`Cc1cc(CCNC(=O)[C@@H]2CC(=O)N(C)[C@@H](CC(C)C)C(=O)N3CCCC[C@@H]3C(=O)N[C@H](Cc3ccccc3)COc3ccc4c(cnn4C)c3C(=O)N2)on1` [Example 429, (8S,12S,18aR,21R)-21-benzyl-12-isobutyl-3,11-dimethyl-N-(2-(3-methylisoxazol-5-yl)ethyl)-6,10,13,19-tetraoxo-6,7,8,9,10,11,12,13,16,17,18,18a,19,20,21,22-hexadecahydro-3H,15H-pyrido[2′,11:6,7][1]oxa[4,7,10,14]tetraazacycloheptadecino[16,17-e]indazole-8-carboxamide]: the EC50 was determined as 606 nM and the Emax stood at 224%.

In the case of `CC(C)C[C@H]1C(=O)N(C)CC(=O)N[C@H](Cc2ccccc2)COc2nc3ccccn3c2C(=O)N[C@H](C(=O)NCCc2ccc3c(c2)OCO3)CC(=O)N1C` [Example 430, (3R,9S,13S)-N-(2-(benzo[d][1,3]dioxol-5-yl)ethyl)-3-benzyl-9-isobutyl-7,10-dimethyl-5,8,11,15-tetraoxo-2,3,4,5,6,7,8,9,10,11,12,13,14,15-tetradecahydropyrido[2′,11:2,3]imidazo[4,5-p][1]oxa[4,7,10,14]tetraazacycloheptadecine-13-carboxamide], the EC50 was found to be 964 nM and the maximum response (Emax) turned out to be 194%.

For the compound `COCCCN1C(=O)[C@H](CC(C)C)N(C)C(=O)C[C@@H](C(=O)NCCc2cccc(OC)c2)NC(=O)c2c(ccc3ccccc23)OC[C@@H](Cc2ccccc2)NC(=O)[C@H]1C` [Example 431, (3S,7S,10R,13R)-13-benzyl-7-isobutyl-N-(3-methoxyphenethyl)-9-(3-methoxypropyl)-6,10-dimethyl-1,5,8,11-tetraoxo-1,2,3,4,5,6,7,8,9,10,11,12,13,14-tetradecahydronaphtho[1,2-p][1]oxa[4,7,10,14]tetraazacycloheptadecine-3-carboxamide], the concentration for a half-maximal effect (EC50) was found to be 208 nM and the maximum response (Emax) came out at 281%.

In the case of `Cc1cc(CCNC(=O)[C@@H]2CC(=O)N(C)[C@@H](CC3CCCC3)C(=O)N(C)C3(CC3)C(=O)N[C@H](Cc3ccccc3)COc3cnc4ccccc4c3C(=O)N2)on1` [Example 432, (3′S,7′S,13′R)-13′-benzyl-7′-(cyclopentylmethyl)-6′,9′-dimethyl-N-(2-(3-methylisoxazol-5-yl)ethyl)-1′,5′,8′,11′-tetraoxo-2′,3′,4′,5′,6′,7′,8′,9′,11′,12′,13′,14′-dodecahydro-1′H-spiro[cyclopropane-1,10′-[1]oxa[4,7,10,14]tetraazacycloheptadecino[17,16-c]quinoline]-3′-carboxamide], the EC50 was 474 nM and the Emax turned out to be 413%.

Consider `COc1cccc(CCNC(=O)[C@@H]2CC(=O)N(C)[C@@H](CC(C)C)C(=O)N(C)C3(CC3)C(=O)N[C@H](Cc3ccccc3)COc3cnc4ccccc4c3C(=O)N2)c1` [Example 433, (3′S,7′S,13′R)-13′-benzyl-7′-isobutyl-N-(3-methoxyphenethyl)-6′,9′-dimethyl-1′,5′,8′,11′-tetraoxo-2′,3′,4′,5′,6′,7′,8′,9′,11′,12′,13′,14′-dodecahydro-1′H-spiro[cyclopropane-1,10′-[1]oxa[4,7,10,14]tetraazacycloheptadecino[17,16-c]quinoline]-3′-carboxamide], for which the EC50 amounted to 167 nM and the Emax came to 344%.

On to `Cc1cc(CCNC(=O)[C@@H]2CC(=O)N(C)[C@@H](CC(C)C)C(=O)N(C)C3(CC3)C(=O)N[C@H](Cc3ccccc3)COc3cnc4ccccc4c3C(=O)N2)on1` [Example 434, (3′S,7′S,13′R)-13′-benzyl-7′-isobutyl-6′,9′-dimethyl-N-(2-(3-methylisoxazol-5-yl)ethyl)-1′,5′,8′,11′-tetraoxo-2′,3′,4′,5′,6′,7′,8′,9′,11′,12′,13′,14′-dodecahydro-1′H-spiro[cyclopropane-1,10′-[1]oxa[4,7,10,14]tetraazacycloheptadecino[17,16-c]quinoline]-3′-carboxamide], for which the EC50 amounted to 664 nM and the Emax amounted to 327%.

With `Cc1cc(CCNC(=O)[C@@H]2CC(=O)N(C)[C@@H](CC3CCCC3)C(=O)N3CCOC[C@@H]3C(=O)N[C@H](Cc3ccccc3)COc3ccc4nc(C)oc4c3C(=O)N2)on1` [Example 435], the EC50 was determined as 895 nM and the Emax amounted to 119%.

As usually defined, the EC50 is the concentration at which the effect is half-maximal. As usually defined, the Emax is the greatest response seen or fitted, relative to the assay's reference.
